# Reference: publication PMC4918930, “Investigation of Elemental Mass Spectrometry in Pharmacology for Peptide Quantitation at Femtomolar Levels” (PLoS ONE, 2016)
# Residues, ends and D or L forms follow the SMILES beside them.
# Target: T1, human V1A receptor (Homo sapiens, UniProt P37288)
# T1 construct: expressed in transfected cells
# Experiment: Saturation experiment with RP-LC-ICP-MS (78Se) read-out on CHO cells stably expressing the human V1A receptor
# Settings: [Se-Se]-AVP 0.05 nM to 80 nM, non-specific with 2000-fold excess of AVP, binding buffer pH 7.4, 4 h at 4°C, 1% TFA dissociation, mean of 2 independent experiments carried out in triplicate, ±SD, read-out: dissociation constant (Kd)
# Procedure: (§1) Assays were performed in triplicate.
# as §1
# T1 sequence (P37288 whole entry): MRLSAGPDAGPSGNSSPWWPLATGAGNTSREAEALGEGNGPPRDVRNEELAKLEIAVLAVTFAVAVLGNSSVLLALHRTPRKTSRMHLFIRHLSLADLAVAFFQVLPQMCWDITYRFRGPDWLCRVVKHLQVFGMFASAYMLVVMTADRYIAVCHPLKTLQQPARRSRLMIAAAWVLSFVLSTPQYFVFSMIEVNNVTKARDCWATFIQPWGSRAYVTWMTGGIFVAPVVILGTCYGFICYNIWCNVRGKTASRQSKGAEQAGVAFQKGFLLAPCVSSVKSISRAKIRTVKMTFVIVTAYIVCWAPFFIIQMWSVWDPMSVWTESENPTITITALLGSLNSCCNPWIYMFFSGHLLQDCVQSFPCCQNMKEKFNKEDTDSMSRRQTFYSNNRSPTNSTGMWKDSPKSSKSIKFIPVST
smiles,measurement,value
"N=C(N)NCCC[C@H](NC(=O)[C@@H]1CCCN1C(=O)[C@@H]1C[Se][Se]C[C@H](N)C(=O)N[C@@H](Cc2ccc(O)cc2)C(=O)N[C@@H](Cc2ccccc2)C(=O)N[C@@H](CCC(N)=O)C(=O)N[C@@H](CC(N)=O)C(=O)N1)C(=O)NCC(N)=O [[Se-Se]-AVP] (HELM PEPTIDE1{[N[C@@H](C[Se][*:3])C(=O)[*:2]].Y.F.Q.N.[O=C([C@H](C[Se][*:3])N[*:1])[*:2]].P.R.G.[am]}$PEPTIDE1,PEPTIDE1,1:R3-6:R3$$$V2.0)",Kd,0.99 ± 0.14 nM
